Reference: US11932633B2, “KRas G12C inhibitors” (Mirati Therapeutics, Inc., priority 2018, dated 2024)

Columns and labels:
KRas G12C [1] = target: T1, KRas G12C (Homo sapiens, UniProt P01116, C118S/C51S/C80L/G12C); assay: KRas G12C Modification Assay (LCMS detection of covalent adduct); type: binding; settings: 5 μM concentration for 3 hours
T1 construct: GDP-loaded K-Ras (1-169) G12C, C51S, C80L, C118S
Procedure: This Example illustrates that exemplary compounds of the present invention covalently bind to KRas G12C using a LCMS assay to detect a covalent adduct of the exemplary compound and KRAS G12C.
The protein concentration of GDP-loaded K-Ras (1-169) G12C, C51S, C80L, C118S and GTP-loaded K-Ras (1-169) G12C, C51S, C80L, C118S, Q61H was adjusted to 2 μM in K-Ras Assay Buffer (25 mM HEPES, 150 mM NaCl, 5 mM MgCl2, and 10 mM Octyl β-glucopyranoside at pH 7.5). A 10 μL aliquot of each protein solution was transferred to a 384 well microtiter plate. Initial compound stocks were generated at fifty times their desired final assay concentration in DMSO.
Exemplary compounds of formula (I) were diluted 25-fold into K-Ras Assay Buffer to a final of two times their final concentration. A 10 μL aliquot of each diluted compound solution was added to each of the protein solutions in the microtiter plate to initiate reaction. Typical final compound concentrations were 3.0, 5.0 and 25.0 μM. At each time point, the reactions were quenched with 20 μL of a 25 mM acetic acid solution. Usual assay endpoints were 15, 180 and 1440 minutes. Once all reactions were quenched, the plates were heat sealed and the samples were injected into a LC/MS system for data acquisition.
Data collection took place on an Agilent 6520 Q-TOF Accurate Mass Spectrometer. Samples were injected in their liquid phase onto a C-3 reverse phase column to remove assay buffer and prepare the samples for mass spectrometer. The proteins were eluted from the column using an acetonitrile gradient and fed directly into the mass analyzer. Initial raw data analysis took place in Agilent MassHunter software immediately post data acquisition.
Raw data analysis of the intact protein was exclusively a deconvolution of the multiple charge states of each protein in solution using a maximum entropy deconvolution provided in Mass Hunter. To minimize complexity, only the data over limited mass ranges were considered for analysis, with a minimum of one Dalton mass step intervals. The heights of all masses identified during raw data analysis were exported to be further analyzed in Spotfire® data analysis software.
Final data analysis was a multistep process in the Spotfire® data analysis software package. Briefly, each protein mass was calculated as a percent of the total signal of that sample, that percentage was normalized to the percentage of signal of the protein in the absence of reactive compounds. Those normalized signals were reported as normalized percent of control (POC). […] Key: N.D. is not determined.

KRas G12C [2] = target: T2, KRas G12C (Homo sapiens, UniProt P01116, G12C); assay: Cellular inhibition of KRas G12C measured by Phospho-ERK in NCI-11358 cells; type: cell-based; settings: NCI-11358 cells (ATCC CRL-5807), 3 hours; read-out: Inhibition (IC50, pERK (Thr202/Tyr204) signal normalized with GAPDH)
T2 construct: NCI-11358 cells (ATCC CRL-5807) express KRas G12C; host or cells: NCI-H358
Procedure: The cellular inhibition of KRAs G12C by exemplary compounds of the present invention was determined by measuring the amount of a downstream marker of KRas activity, phosphorylated ERK (“Phospho-ERK”).
NCI-11358 cells (ATCC CRL-5807) express KRas G12C and were grown in RPMI medium supplemented with 10% fetal bovine serum, penicillin/streptomycin and 10 mM HEPES. Cells were plated in poly-D-Lysine coated 96-well plates at a concentration of 50,000 cells/well and allowed to attach for 8-12 hours. Diluted compounds were then added at a final concentration of 0.5% DMSO. After 3 hours, the medium was removed, 150 μL of 4% formaldehyde was added and the plates were incubated for 20 minutes. The plates were washed with PBS, and permeabilized using 150 μL of ice cold 100% methanol for 10 minutes. Non-specific antibody binding to the plates was blocked using 100 μL Licor Blocking Buffer (Li-Cor Biotechnology, Lincoln NE) for 1 hour at room temperature. Positive control samples and samples lacking cells were parallel processed with test samples as standards.
The amount Phospho-ERK was determined using an antibody specific for the phosphorylated form of ERK and compared to the amount of GAPDH. Primary antibodies used for detection were added as follows: Phospho-ERK (Cell Signaling cs9101) diluted 1:500 and GAPDH (Millipore MAB374) diluted 1:5000 in Licor block+0.05% Tween 20. The plates were incubated for 2 hours at room temperature. The plates were washed with PBS+0.05% Tween 20.
Secondary antibodies used to visualize primary antibodies were added as follows: Anti-rabbit-680 diluted 1:1000 and Anti-mouse-800 diluted 1:1000 in Licor Block+0.05% Tween 20 and incubated for 1 hour at room temperature. The plates were washed with PBS+0.05% Tween 20. A 100 μL aliquot of PBS was added to each well and the plates were read on a LICOR AERIUS plate reader.
The pERK (Thr202/Tyr204) signal was normalized with the GAPDH signal and percent of DMSO control values were calculated. IC50 values were generated using a 4 parameter fit of the dose response curve. Key: “A”: ≤1 μM, “B”>1 μM and N.D.=not determined.

Q: With `C=CC(=O)N1CC(CN2C(=O)COc3cc(-c4cc(O)cc5ccccc45)ccc32)C1` [Example 12, 4-((1-acryloylazetidin-3-yl)methyl)-7-(3-hydroxynaphthalen-1-yl)-2H-benzo[b][1,4]oxazin-3(4H)-one] as the compound, how does the “POC (normalized percent of control, covalent modification of KRas G12C)” value (KRas G12C [1]) read?
A: Its value is 94% of control.

Q: And the IC50 (KRas G12C [2])?
A: Its IC50 is > 1 µM.

Q: What does the source list for `C=CC(=O)N1CC(CN2C(=O)[C@H](CCN(C)C)Oc3cc(-c4c(C)ccc5[nH]ncc45)c(Cl)cc32)C1` (single isomer, unassigned) [Example 35]?
A: POC (normalized percent of control, covalent modification of KRas G12C) (KRas G12C [1]; 5 µM): 86% of control; IC50 (KRas G12C [2]): ≤ 1 µM

Q: With `C=CC(=O)N1CC(CN2C(=O)[C@H](CCN3CCOCC3)Oc3cc(-c4cc(O)cc5ccccc45)c(Cl)cc32)C1` [Example 34, (S)-4-((1-acryloylazetidin-3-yl)methyl)-6-chloro-7-(3-hydroxynaphthalen-1-yl)-2-(2-morpholinoethyl)-2H-benzo[b][1,4]oxazin-3(4H)-one] as the compound, how does the “POC (normalized percent of control, covalent modification of KRas G12C)” value (KRas G12C [1]) read?
A: Its value is 93% of control.

Q: And the IC50 (KRas G12C [2])?
A: Its IC50 is ≤ 1 µM.

Q: For `C=CC(=O)N1CC(CN2C(=O)C(CN3CC[C@@H](OC)C3)Oc3cc(-c4cc(O)cc5ccccc45)c(Cl)cc32)C1` (stereo partly drawn) [Example 28, 4-((1-acryloylazetidin-3-yl)methyl)-6-chloro-7-(3-hydroxynaphthalen-1-yl)-2-(((R)-3-methoxypyrrolidin-1-yl)methyl)-2H-benzo[b][1,4]oxazin-3(4H)-one], which “POC (normalized percent of control, covalent modification of KRas G12C)” value (KRas G12C [1]) is on record?
A: Its value is 93% of control.

Q: What about the IC50 (KRas G12C [2]) of the same compound?
A: Its IC50 is ≤ 1 µM.

Q: Which results are given for `C=CC(=O)N1CC(CN2C(=O)COc3cc(-c4[nH]nc(C)c4C)c(Cl)cc32)C1` [Example 38, 6-chloro-7-(3,4-dimethyl-1H-pyrazol-5-yl)-4-[(1-prop-2-enoylazetidin-3-yl)methyl]-1,4-benzoxazin-3-one]?
A: POC (normalized percent of control, covalent modification of KRas G12C) (KRas G12C [1]): 72% of control; IC50 (KRas G12C [2]): > 1 µM

Q: How did the “POC (normalized percent of control, covalent modification of KRas G12C)” value (KRas G12C [1]) turn out when `C=CC(=O)N1CC(CN2C(=O)COc3cc(-c4cc(O)cc5ccccc45)c(Br)cc32)C1` [Example 31, 4-((1-acryloylazetidin-3-yl)methyl)-6-bromo-7-(3-hydroxynaphthalen-1-yl)-2H-benzo[b][1,4]oxazin-3(4H)-one] was run?
A: The value was 88% of control.

Q: And the IC50 (KRas G12C [2])?
A: The IC50 was ≤ 1 µM.

Q: Which results are given for `C=CC(=O)N1CC(CN2C(=O)C(C3CCN(C)CC3)Oc3cc(-c4cc(O)cc5ccccc45)c(Cl)cc32)C1` (stereo not drawn) [Example 3, 4-((1-acryloylazetidin-3-yl)methyl)-6-chloro-7-(3-hydroxynaphthalen-1-yl)-2-(1-methylpiperidin-4-yl)-2H-benzo[b][1,4]oxazin-3(4H)-one]?
A: POC (normalized percent of control, covalent modification of KRas G12C) (KRas G12C [1]): 91% of control; IC50 (KRas G12C [2]): ≤ 1 µM

Q: With `C=CC(=O)N1CC(CN2C(=O)[C@H](CCN(C)C)Oc3cc(-c4cc(O)cc5ccccc45)c(Cl)cc32)C1` [Example 26, (S)-4-((1-acryloylazetidin-3-yl)methyl)-6-chloro-2-(2-(dimethylamino)ethyl)-7-(3-hydroxynaphthalen-1-yl)-2H-benzo[b][1,4]oxazin-3(4H)-one] as the compound, how does the “POC (normalized percent of control, covalent modification of KRas G12C)” value (KRas G12C [1]) read?
A: Its value is 90% of control.

Q: What about the IC50 (KRas G12C [2]) of the same compound?
A: The IC50 was ≤ 1 µM.

Q: `C=CC(=O)N1CC(CN2C(=O)C(CN3CCCC3)Oc3cc(-c4cc(O)cc5ccccc45)c(Cl)cc32)C1` (stereo not drawn) [Example 4, 4-((1-acryloylazetidin-3-yl)methyl)-6-chloro-7-(3-hydroxynaphthalen-1-yl)-2-(pyrrolidin-1-ylmethyl)-2H-benzo[b][1,4]oxazin-3(4H)-one] was tested. Which “POC (normalized percent of control, covalent modification of KRas G12C)” value (KRas G12C [1]) did it give?
A: Its value is 104% of control.

Q: What about the IC50 (KRas G12C [2]) of the same compound?
A: The IC50 was ≤ 1 µM.

Q: How did the “POC (normalized percent of control, covalent modification of KRas G12C)” value (KRas G12C [1]; 5 µM) turn out when `C=CC(=O)N1CC(CN2C(=O)COc3cc(-c4c(C)ccc5[nH]ncc45)c(Cl)cc32)C1` (single isomer, unassigned) [Example 10] was run?
A: The value was 53% of control.

Q: And the IC50 (KRas G12C [2])?
A: The IC50 was > 1 µM.

Q: For `C=CC(=O)N1CC(CN2C(=O)COc3cc(-c4cc(O)ccc4OC(F)(F)F)c(Cl)cc32)C1` [Example 7, 4-((1-acryloylazetidin-3-yl)methyl)-6-chloro-7-(5-hydroxy-2-(trifluoromethoxy)phenyl)-2H-benzo[b][1,4]oxazin-3(4H)-one], which “POC (normalized percent of control, covalent modification of KRas G12C)” value (KRas G12C [1]) is on record?
A: Its value is 96% of control.

Q: And the IC50 (KRas G12C [2])?
A: The IC50 was > 1 µM.

Q: Which “POC (normalized percent of control, covalent modification of KRas G12C)” value (KRas G12C [1]) does the source give for `C=CC(=O)N1CC(CN2C(=O)C(CCCN3CCOCC3)Oc3cc(-c4cc(O)cc5ccccc45)c(Cl)cc32)C1` (stereo not drawn) [Example 25, 4-((1-acryloylazetidin-3-yl)methyl)-6-chloro-7-(3-hydroxynaphthalen-1-yl)-2-(3-morpholinopropyl)-2H-benzo[b][1,4]oxazin-3(4H)-one 2,2,2-trifluoroacetate] here?
A: The value was 93% of control.

Q: And the IC50 (KRas G12C [2])?
A: Its IC50 is ≤ 1 µM.

Q: Which “POC (normalized percent of control, covalent modification of KRas G12C)” value (KRas G12C [1]) does the source give for `C=CC(=O)N1CC(CN2C(=O)C(CN(C)C)Oc3cc(-c4cc(O)cc5ccccc45)c(Cl)cc32)C1` (stereo not drawn) [Example 27, 4-((1-acryloylazetidin-3-yl)methyl)-6-chloro-2-((dimethylamino)methyl)-7-(3-hydroxynaphthalen-1-yl)-2H-benzo[b][1,4]oxazin-3(4H)-one] here?
A: Its value is 94% of control.

Q: And the IC50 (KRas G12C [2])?
A: Its IC50 is ≤ 1 µM.

Q: Which results are given for `C=CC(=O)N1CC(CN2C(=O)C(CN3CC[C@H](OC)C3)Oc3cc(-c4cc(O)cc5ccccc45)c(Cl)cc32)C1` (stereo partly drawn) [Example 30, 4-((1-acryloylazetidin-3-yl)methyl)-6-chloro-7-(3-hydroxynaphthalen-1-yl)-2-(((S)-3-methoxypyrrolidin-1-yl)methyl)-2H-benzo[b][1,4]oxazin-3(4H)-one]?
A: POC (normalized percent of control, covalent modification of KRas G12C) (KRas G12C [1]): 93% of control; IC50 (KRas G12C [2]): ≤ 1 µM

Q: Which results are given for `C=CC(=O)N1CC(CN2C(=O)C(CC(C)C)Oc3cc(-c4cc(O)cc5ccccc45)c(Cl)cc32)C1` (stereo not drawn) [Example 2, 4-((1-acryloylazetidin-3-yl)methyl)-6-chloro-7-(3-hydroxynaphthalen-1-yl)-2-isobutyl-2H-benzo[b][1,4]oxazin-3(4H)-one]?
A: POC (normalized percent of control, covalent modification of KRas G12C) (KRas G12C [1]): 94% of control; IC50 (KRas G12C [2]): > 1 µM

Q: Which results are given for `C=CC(=O)N1CC(C(C)N2C(=O)COc3cc(-c4cc(O)cc5ccccc45)c(Cl)cc32)C1` (stereo not drawn) [Example 23, 4-(1-(1-acryloylazetidin-3-yl)ethyl)-6-chloro-7-(3-hydroxynaphthalen-1-yl)-2H-benzo[b][1,4]oxazin-3(4H)-one]?
A: POC (normalized percent of control, covalent modification of KRas G12C) (KRas G12C [1]): 34% of control; IC50 (KRas G12C [2]): > 1 µM

Q: For `C=CC(=O)N1CC(CN2C(=O)C(CC3CCN(C)CC3)Oc3cc(-c4cc(O)cc5ccccc45)c(Cl)cc32)C1` (stereo not drawn) [Example 20, 4-((1-acryloylazetidin-3-yl)methyl)-6-chloro-7-(3-hydroxynaphthalen-1-yl)-2-((1-methylpiperidin-4-yl)methyl)-2H-benzo[b][1,4]oxazin-3(4H)-one], which “POC (normalized percent of control, covalent modification of KRas G12C)” value (KRas G12C [1]) is on record?
A: Its value is 99% of control.

Q: What about the IC50 (KRas G12C [2]) of the same compound?
A: The IC50 was ≤ 1 µM.

Q: Which results are given for `C=CC(=O)N1CC(CN2C(=O)COc3cc(-c4c(C)ccc5[nH]ncc45)c(Cl)cc32)C1` (single isomer, unassigned) [Example 11]?
A: POC (normalized percent of control, covalent modification of KRas G12C) (KRas G12C [1]; 5 µM): 96% of control; IC50 (KRas G12C [2]): > 1 µM
